Experiments:
Pharmacokinetics in rats = experiment: Pharmacokinetics in rats
Experimental: Each rat was used for collection of blood samples for a maximum of 4 time points. […] The samples were centrifuged for 3 minutes at 2000×g (Eppendorf 5417R centrifuge) to obtain plasma. The plasma samples were stored at −80° C. until LC-MS/MS analysis.
(§1) LC-MS/MS analysis utilized a Waters Acquity UPLC system paired with a Waters Quattro Premier XE tandem quadrupole mass spectrometer operating in ESI positive mode. Prior to injection, K3EDTA plasma samples were processed using a Phenomenex Strata X-A solid phase extraction (SPE) plate. All plasma samples were fortified with N-Maleoyl-β-alanine, mannitol, and acetic acid. Briefly, 50 μL of plasma diluted with 50 μL of internal standard solution and 500 μL 1000:4:1.5 water:ammonium hydroxide:formic acid was mixed and loaded onto a preconditioned Strata X-A SPE plate. Aqueous and organic washes were then applied followed by elution of all analytes with 300:200:7.5 methanol:water:formic acid. The samples were evaporated until approximately 30 μL remained in all wells and 30 μL of 9:1 water:ammonium hydroxide was then added. Finally, the plate was sealed, mixed, and centrifuged prior to transfer to the 2-8° C. Acquity autosampler. Note: During EC1669 analysis, EC0470 was converted to a hydrazone product for bioanalysis. Acetone (500 μL) was added to all samples after the first evaporation step followed by sealing all wells and heating at 50° C. for one hour. After this step, the acetone was evaporated and the extraction completed as described above.
(§2) A 10 μL sample volume was applied to the Waters BEH Shield RP18 100×2.1 mm, […] UPLC column operating at a flow rate of 0.4 mL/min while being maintained at 45° C. A gradient between mobile phase A (1000:4:1.5 water:ammonium hydroxide:formic acid) and mobile phase B (acetonitrile) was used to separate the analytes. The gradient was held at 2% B for the first 30 seconds of the chromatographic run followed by increasing to 20% B by 2.5 minutes. A rapid gradient from 60-90% B is then used to clean the column prior to equilibration at 2% B to complete the 4 minute run cycle.
(§3) For EC1669 MS/MS analysis, EC1669 and its known major metabolites, EC1886 and […], were optimized and monitored. […] In all cases, internal standard response was used to generate response ratios for each analyte. When calibrated, data was regressed using MassLynx 4.1 software. The table below lists transitions for analytes and internal standards monitored for LC-MS/MS bioanalysis.

Pharmacokinetics in dogs = conditions: for half-life: male
Experimental: (§4) The samples were centrifuged under refrigeration for at least 10 minutes at 3000 rpm and the plasma generated stored at −20° C. until LC-MS/MS analysis.
as §4, §1, §2, §3

[1] = test system: Rat adjuvant arthritis (AIA); experiment: Rat adjuvant arthritis (AIA) treatment studies; type: in vivo
Experimental: Female Lewis rats (175-200 g) were purchased from Harlan Sprague Dawley (Indianapolis, Ind.) and allowed to acclimate for 1 week. Generally, rats were fed a folate-deficient diet (Harlan Teklad) for 9-10 days prior to arthritis induction.
Rat adjuvant arthritis (AIA) was induced by intradermal inoculation (at the base of tail) of 0.45-0.46 mg of heat-killed Mycobacteria butyricum (BD Diagnostic Systems, Sparks, Md.) in 100 μL light mineral oil (Sigma). […] During the course of disease development, animals were weighed at least 3 times a week. Paw edema (degree of arthritis) were scored 3 times a week as follows: 0=no edema or arthritis; 1=swelling in one type of joint; 2=swelling in two types of joint; 3=swelling in three types of joint; 4=swelling of the entire paw. A total score for each rat is calculated by adding up the scores for each of the four paws, giving a maximum of 16 per animal.
On the first day of treatment, rats with desired arthritis scores were distributed evenly across the control and treatment groups (n=5). […] All compounds and conjugates were administered subcutaneously (s.c.) starting 9 days after arthritis induction with biweekly (BIW, Mondays and Thursdays) or once-a-week (QW, Mondays) dosing for two consecutive weeks. At the completion of each study (˜4 days after the last treatment), rats were euthanized by CO2 asphyxiation and processed for paw weight (cut at the hairline) and spleen weight.
The rat AIA model resembles many characteristics of human rheumatoid arthritis and it is very aggressive. […] The animals in the AIA control group were left untreated.

[2] = rat plasma, EC1669 dosed SC 500 nmol/kg
[3] = beagle dog plasma, EC1669 dosed SC 2.4 mg/kg (1073 nmol/kg), N=4
[4] = female, Lewis, rat, in vivo, sc, 500 nmol/kg
[5] = beagle, dog, in vivo, sc, 2.4 mg/kg

Compound `NNC(=O)CC[C@H](NC(=O)c1ccc(NCc2cnc3nc(N)nc(N)c3n2)cc1)C(=O)O` [EC0470, aminopterin gamma-hydrazide] has an AUCinf (Pharmacokinetics in rats; [2]) of 0.0659 µM·h, an AUClast (Pharmacokinetics in rats; [2]) of 0.0647 µM·h and a Cmax (Pharmacokinetics in rats; [2]) of 21.2 nM. It also gave a Tmax (Pharmacokinetics in rats; [2]) of 1 h, a t1/2 (Pharmacokinetics in rats; [2]) of 1.64 h and an AUClast (Pharmacokinetics in dogs; [3]) of 0.51 µM·h. The Cmax (Pharmacokinetics in dogs; [3]) was 66.5 nM, the Tmax (Pharmacokinetics in dogs; [3]) was 3.25 h and the t1/2 (Pharmacokinetics in dogs; [3]) was 4.38 h.
For `Nc1nc(N)c2nc(CNc3ccc(C(=O)N[C@@H](CCC(=O)O)C(=O)O)cc3)cnc2n1` [EC1886, aminopterin, reference compound], the AUCinf (Pharmacokinetics in rats; [4]) was 0.0956 µM·h, the AUClast (Pharmacokinetics in rats; [4]) was 0.0947 µM·h and the half-life (Pharmacokinetics in rats; [4]) was 0.997 h. It also gave an AUC(0-inf) (Pharmacokinetics in rats; female, Lewis, rat, in vivo, sc, 500 nmol/kg, AUCinf) of 0.107 µM·h, an AUClast (Pharmacokinetics in dogs; beagle dog plasma, EC2319 dosed SC 2.43 mg/kg (1074 nmol/kg), N=2) of 0.157 µM·h and an AUC(0-t) (Pharmacokinetics in dogs; [5]) of 0.0417 µM·h. For the same compound, the Cmax (Pharmacokinetics in dogs; [5]) was 9.41 nM, the Tmax (Pharmacokinetics in dogs; [5]) was 3.5 h and the “AUClast of aminopterin released, higher from EC2319 than from EC1669” value (Pharmacokinetics in dogs; dogs, subcutaneous dosing) was about 3.8 fold. For the same compound, the “Cmax of aminopterin released, higher from EC2319 than from EC1669” value (Pharmacokinetics in dogs; dogs, subcutaneous dosing) was about 2.6 fold, the half-life (Pharmacokinetics in dogs; beagle, dog, in vivo, iv, 1 mg/kg) was 2 h and the half-life (Pharmacokinetics in dogs; beagle, dog, in vivo, sc, 2.43 mg/kg) was 2.74 h.
For `N=c1[nH]c(N)nc2ncc(CNc3ccc(C(=O)N[C@@H](CCC(=O)NCCSSC[C@@H](NC(=O)[C@H](CCC(=O)NC[C@H](O)[C@@H](O)[C@H](O)[C@H](O)CO)NC(=O)[C@@H](CCC(=O)O)NC(=O)[C@H](CCC(=O)NC[C@H](O)[C@@H](O)[C@H](O)[C@H](O)CO)NC(=O)[C@@H](CCC(=O)O)NC(=O)[C@H](CCC(=O)NC[C@H](O)[C@@H](O)[C@H](O)[C@H](O)CO)NC(=O)CC[C@H](NC(=O)c4ccc(NCc5cnc6nc(N)[nH]c(=O)c6n5)cc4)C(=O)O)C(=O)O)C(=O)O)cc3)nc12` [EC2285], the “anti-arthritic activity with concurrent EC0923 (arthritis score, paw weight, spleen weight, body weight)” value ([1]; Study 2, 500 nmol/kg BIW plus 500-fold molar excess EC0923 (250 μmol/kg)) was “fully blocked by EC0923”.
In the case of `COC(=O)[C@H](CCCCNC(=O)[C@H](CCC(=O)NC[C@H](O)[C@@H](O)[C@H](O)[C@H](O)CO)NC(=O)[C@H](CCC(=O)O)NC(=O)[C@H](CCC(=O)NC[C@H](O)[C@@H](O)[C@H](O)[C@H](O)CO)NC(=O)[C@H](CCC(=O)O)NC(=O)[C@H](CCC(=O)NC[C@H](O)[C@@H](O)[C@H](O)[C@H](O)CO)NC(=O)CC[C@H](NC(=O)c1ccc(NCc2cnc3nc(N)[nH]c(=O)c3n2)cc1)C(=O)O)NC(=O)CC[C@H](NC(=O)c1ccc(NCc2cnc3nc(N)[nH]c(=N)c3n2)cc1)C(=O)O` [EC2413], the anti-arthritic activity ([1]; Study 3, 500 nmol/kg, BIW) was “significant anti-arthritic activity”, the body weight ([1]; Study 3, 500 nmol/kg, BIW) was “maintained a good body weight” and the “decreasing arthritis score, paw weight, and spleen weight” value ([1]; Study 3, 500 nmol/kg, BIW, two consecutive weeks) was “inferior to both EC2319 and EC1669”. The “effectiveness in all parameters assessed” value ([1]; Study 3, 1000 nmol/kg (QW)) was “less effective than EC2413 dosed at 500 nmol/kg (BIW)”.
`COC(=O)[C@H](CSC1CC(=O)N(CCC(=O)O)C1=O)NC(=O)CC[C@H](NC(=O)c1ccc(NCc2cnc3nc(N)[nH]c(=N)c3n2)cc1)C(=O)O` (stereo partly shown) [EC2496] gave a half-life (Pharmacokinetics in dogs; beagle, dog, plasma, iv, 1 mg/kg) of 1.28 h and a half-life (Pharmacokinetics in dogs; beagle, dog, plasma, sc, 2.43 mg/kg) of 2.14 h.
